Reference: ChEMBL document CHEMBL5634161, “Discovery of benzamide-based PI3K/HDAC dual inhibitors with marked pro-apoptosis activity in lymphoma cells” (Eur J Med Chem, 2023)
Calls of active or inactive are those of the source. The calls are words filed in the database; no cut-off is given here.

Columns and labels:
JeKo-1 [1] = test: Potency index, ratio of 4-(3-(4-(4-methoxy-6-morpholino-1,3,5-triazin-2-yl)phenyl)urea)-N-(2-ethylamino)ethylbenzamide IC50 to test compound IC50 for antiproliferative activity against human JeKo-1 cells incubated for 48 hrs by resazurin based fluorescence microplate reader analysis; type: functional
[2] = biological target: Protein deacetylase HDAC6 (Homo sapiens, UniProt Q9UBN7); test: Inhibition of HDAC6 (unknown origin) using Boc-Lys(acetyl)-AMC as substrate preincubated for 1 hrs followed by substrate addition and measured after 2 hrs by spectrophotometer based fluorometric assay
JeKo-1 [3] = test: Induction of apoptosis in human JeKo-1 cells assessed as early apoptotic cells at 0.5 uM incubated for 48 hrs by Annexin-V/FITC and PI staining based flow cytometric analysis (reference value: […]); type: functional
[4] = biological target: Phosphatidylinositol 4,5-bisphosphate 3-kinase catalytic subunit alpha isoform (Homo sapiens, UniProt P42336); test: Inhibition of PI3Kalpha (unknown origin) using PIP2 as substrate incubated for 1 hrs in presence of ATP by ADP-Glo kinase assay
HL-60 = test: Antiproliferative activity against human HL-60 cells incubated for 48 hrs by resazurin dye based fluorescence micro plate reader analysis; type: functional, cell-based; settings: HL-60, 48 h
[5] = Stability in mouse liver microsomes assessed as compound remaining at […] preincubated for 5 mins followed by NADPH addition and measured after 45 mins by LC-MS/MS analysis; type: ADME, Microsome; settings: time 50 min, read-out: Stability
[6] = Stability in human liver microsomes assessed as compound remaining at […] preincubated for 5 mins followed by NADPH addition and measured after 5 mins by LC-MS/MS analysis; type: ADME, Microsome; settings: time 10 min, read-out: Stability
Histone deacetylase 3 = Histone deacetylase 3 (Homo sapiens, UniProt O15379); test: Inhibition of HDAC3 (unknown origin) using Boc-Lys(acetyl)-AMC as substrate preincubated for 1 hrs followed by substrate addition and measured after 2 hrs by spectrophotometer based fluorometric assay
[7] = biological target: Phosphatidylinositol 4,5-bisphosphate 3-kinase catalytic subunit delta isoform (Homo sapiens, UniProt O00329); test: Inhibition of PI3Kdelta (unknown origin) using PIP2 as substrate incubated for 1 hrs in presence of ATP by ADP-Glo kinase assay
[8] = Stability in mouse liver microsomes assessed as compound remaining at 0.5 mM preincubated for 5 mins followed by NADPH addition and measured immediately by LC-MS/MS analysis; type: ADME, Microsome; settings: read-out: Stability
[9] = Cytotoxicity against human HL7702 cells incubated for 48 hrs by resazurin dye based fluorescence micro plate reader analysis; type: toxicity, cell-based; settings: HL7702 (L02) cells
CYP2C9 = CYP2C9 (Homo sapiens, UniProt P11712); test: Inhibition of CYP2C9 in human liver microsomes using diclofenac as substrate at 10 uM in presence of NADPH regenerating system by LC-MS/MS analysis relative to control; type: ADME, Microsome; settings: probe diclofenac
[10] = Stability in mouse liver microsomes assessed as compound remaining at […] preincubated for 5 mins followed by NADPH addition and measured after 30 mins by LC-MS/MS analysis; type: ADME, Microsome; settings: time 35 min, read-out: Stability
[11] = biological target: Phosphatidylinositol 4,5-bisphosphate 3-kinase catalytic subunit beta isoform (Homo sapiens, UniProt P42338); test: Inhibition of PI3Kbeta (unknown origin) using PIP2 as substrate incubated for 1 hrs in presence of ATP by ADP-Glo kinase assay
[12] = C0 in ICR mouse at 1 mg/kg, iv measured after 24 hrs by LC-MS/MS analysis; type: ADME, organism-based; settings: in vivo
JeKo-1 [13] = test: Induction of apoptosis in human JeKo-1 cells assessed as late apoptotic cells at 1 uM incubated for 48 hrs by Annexin-V/FITC and PI staining based flow cytometric analysis (reference value: 3.66%); type: functional
[14] = Half-life in ICR mouse at 1 mg/kg, iv measured after 24 hrs by LC-MS/MS analysis; type: ADME, organism-based; settings: in vivo
[15] = Stability in human liver microsomes assessed as half-life at […] preincubated for 5 mins followed by NADPH addition and measured upto 45 mins by LC-MS/MS analysis; type: ADME, Microsome; settings: time < 50 min
JeKo-1 [16] = test: Induction of apoptosis in human JeKo-1 cells assessed as viable cells at 0.5 uM incubated for 48 hrs by Annexin-V/FITC and PI staining based flow cytometric analysis (reference value: 94.1%); type: functional; settings: read-out: Activity
[17] = Clearance in ICR mouse at 1 mg/kg, iv measured after 24 hrs by LC-MS/MS analysis; type: ADME, organism-based; settings: in vivo
[18] = Stability in mouse liver microsomes assessed as half-life at […] preincubated for 5 mins followed by NADPH addition and measured upto 45 mins by LC-MS/MS analysis; type: ADME, Microsome; settings: time < 50 min
[19] = Inhibition of PI3K/AKT/mTOR signaling in human JeKo-1 cells assessed as decrease in AKT phosphorylation at S473 residue at 0.25 uM incubated for 24 hrs by Western blot analysis; type: cell-based
Histone deacetylase 1 = Histone deacetylase 1 (Homo sapiens, UniProt Q13547); test: Inhibition of HDAC1 (unknown origin) using Boc-Lys(acetyl)-AMC as substrate preincubated for 1 hrs followed by substrate addition and measured after 2 hrs by spectrophotometer based fluorometric assay
[20] = Stability in mouse liver microsomes assessed as compound remaining at […] preincubated for 5 mins followed by NADPH addition and measured after 5 mins by LC-MS/MS analysis; type: ADME, Microsome; settings: time 10 min, read-out: Stability
Histone deacetylase 9 = Histone deacetylase 9 (Homo sapiens, UniProt Q9UKV0); test: Inhibition of HDAC9 (unknown origin) using Boc-Lys(acetyl)-AMC as substrate preincubated for 1 hrs followed by substrate addition and measured after 2 hrs by spectrophotometer based fluorometric assay
[21] = Stability in rat liver microsomes assessed as compound remaining at 0.5 mM preincubated for 5 mins followed by NADPH addition and measured immediately by LC-MS/MS analysis; type: ADME, Microsome; settings: read-out: Stability
Histone deacetylase 4 = Histone deacetylase 4 (Homo sapiens, UniProt P56524); test: Inhibition of HDAC4 (unknown origin) using Boc-Lys(acetyl)-AMC as substrate preincubated for 1 hrs followed by substrate addition and measured after 2 hrs by spectrophotometer based fluorometric assay
[22] = Stability in rat liver microsomes assessed as compound remaining at […] preincubated for 5 mins followed by NADPH addition and measured after 30 mins by LC-MS/MS analysis; type: ADME, Microsome; settings: time 35 min, read-out: Stability
[23] = AUC (0 to infinity) in ICR mouse at 1 mg/kg, iv measured after 24 hrs by LC-MS/MS analysis; type: ADME, organism-based; settings: in vivo
JeKo-1 [24] = test: Induction of apoptosis in human JeKo-1 cells assessed as viable cells at 1 uM incubated for 48 hrs by Annexin-V/FITC and PI staining based flow cytometric analysis (reference value: 94.1%); type: functional; settings: read-out: Activity
[25] = Stability in human liver microsomes assessed as compound remaining at […] preincubated for 5 mins followed by NADPH addition and measured after 45 mins by LC-MS/MS analysis; type: ADME, Microsome; settings: time 50 min, read-out: Stability
[26] = Volume of distribution at steady state in ICR mouse at 1 mg/kg, iv measured after 24 hrs by LC-MS/MS analysis; type: ADME, organism-based; settings: in vivo
[27] = biological target: Polyamine deacetylase HDAC10 (Homo sapiens, UniProt Q969S8); test: Inhibition of HDAC10 (unknown origin) using Boc-Lys(acetyl)-AMC as substrate preincubated for 1 hrs followed by substrate addition and measured after 2 hrs by spectrophotometer based fluorometric assay
Chain of Polyamine deacetylase HDAC10 (Q969S8 whole entry): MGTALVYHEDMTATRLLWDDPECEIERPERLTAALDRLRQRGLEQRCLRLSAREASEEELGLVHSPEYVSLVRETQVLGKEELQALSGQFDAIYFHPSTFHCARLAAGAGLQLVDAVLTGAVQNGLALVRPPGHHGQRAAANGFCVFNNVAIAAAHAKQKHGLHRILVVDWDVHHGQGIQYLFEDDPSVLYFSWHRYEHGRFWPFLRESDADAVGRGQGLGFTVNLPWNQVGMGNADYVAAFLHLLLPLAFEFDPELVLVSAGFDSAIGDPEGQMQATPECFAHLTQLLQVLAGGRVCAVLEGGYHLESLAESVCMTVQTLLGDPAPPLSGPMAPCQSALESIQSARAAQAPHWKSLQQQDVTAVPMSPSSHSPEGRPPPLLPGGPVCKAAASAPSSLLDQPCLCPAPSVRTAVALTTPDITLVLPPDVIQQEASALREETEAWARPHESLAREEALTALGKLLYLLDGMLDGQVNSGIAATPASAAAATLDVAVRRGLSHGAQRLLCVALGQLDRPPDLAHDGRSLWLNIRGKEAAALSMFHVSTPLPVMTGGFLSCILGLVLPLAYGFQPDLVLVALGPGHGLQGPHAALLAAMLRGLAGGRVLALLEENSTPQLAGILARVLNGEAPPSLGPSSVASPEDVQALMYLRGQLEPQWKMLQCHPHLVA

Chain of CYP2C9 (P11712 whole entry): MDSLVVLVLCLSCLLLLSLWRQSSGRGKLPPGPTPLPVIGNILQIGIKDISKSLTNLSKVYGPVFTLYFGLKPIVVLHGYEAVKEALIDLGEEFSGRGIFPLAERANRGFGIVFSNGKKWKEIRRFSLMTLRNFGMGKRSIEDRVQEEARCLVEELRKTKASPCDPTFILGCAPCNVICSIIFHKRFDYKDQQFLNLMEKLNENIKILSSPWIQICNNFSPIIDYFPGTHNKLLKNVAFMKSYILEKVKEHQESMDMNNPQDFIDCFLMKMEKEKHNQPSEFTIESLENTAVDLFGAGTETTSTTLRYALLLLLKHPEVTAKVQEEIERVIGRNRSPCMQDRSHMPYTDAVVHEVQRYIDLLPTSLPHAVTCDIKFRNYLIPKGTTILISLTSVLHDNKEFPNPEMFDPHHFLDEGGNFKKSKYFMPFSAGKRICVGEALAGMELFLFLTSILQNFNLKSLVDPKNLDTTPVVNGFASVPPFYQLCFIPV
Chain of Histone deacetylase 1 (Q13547 whole entry): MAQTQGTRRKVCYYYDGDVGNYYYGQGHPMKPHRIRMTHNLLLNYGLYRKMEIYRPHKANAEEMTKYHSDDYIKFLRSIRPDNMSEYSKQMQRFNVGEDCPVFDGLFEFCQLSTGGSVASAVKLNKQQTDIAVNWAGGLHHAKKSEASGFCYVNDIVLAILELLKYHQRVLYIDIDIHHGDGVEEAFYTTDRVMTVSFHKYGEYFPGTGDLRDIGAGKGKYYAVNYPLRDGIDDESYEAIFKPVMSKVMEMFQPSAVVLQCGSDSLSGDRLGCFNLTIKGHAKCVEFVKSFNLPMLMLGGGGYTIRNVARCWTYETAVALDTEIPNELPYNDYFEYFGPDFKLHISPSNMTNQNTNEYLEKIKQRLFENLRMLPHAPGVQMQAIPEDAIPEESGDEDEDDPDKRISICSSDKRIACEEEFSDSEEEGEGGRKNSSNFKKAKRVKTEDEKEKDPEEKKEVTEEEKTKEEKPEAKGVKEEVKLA
Chain of Histone deacetylase 9 (Q9UKV0 whole entry): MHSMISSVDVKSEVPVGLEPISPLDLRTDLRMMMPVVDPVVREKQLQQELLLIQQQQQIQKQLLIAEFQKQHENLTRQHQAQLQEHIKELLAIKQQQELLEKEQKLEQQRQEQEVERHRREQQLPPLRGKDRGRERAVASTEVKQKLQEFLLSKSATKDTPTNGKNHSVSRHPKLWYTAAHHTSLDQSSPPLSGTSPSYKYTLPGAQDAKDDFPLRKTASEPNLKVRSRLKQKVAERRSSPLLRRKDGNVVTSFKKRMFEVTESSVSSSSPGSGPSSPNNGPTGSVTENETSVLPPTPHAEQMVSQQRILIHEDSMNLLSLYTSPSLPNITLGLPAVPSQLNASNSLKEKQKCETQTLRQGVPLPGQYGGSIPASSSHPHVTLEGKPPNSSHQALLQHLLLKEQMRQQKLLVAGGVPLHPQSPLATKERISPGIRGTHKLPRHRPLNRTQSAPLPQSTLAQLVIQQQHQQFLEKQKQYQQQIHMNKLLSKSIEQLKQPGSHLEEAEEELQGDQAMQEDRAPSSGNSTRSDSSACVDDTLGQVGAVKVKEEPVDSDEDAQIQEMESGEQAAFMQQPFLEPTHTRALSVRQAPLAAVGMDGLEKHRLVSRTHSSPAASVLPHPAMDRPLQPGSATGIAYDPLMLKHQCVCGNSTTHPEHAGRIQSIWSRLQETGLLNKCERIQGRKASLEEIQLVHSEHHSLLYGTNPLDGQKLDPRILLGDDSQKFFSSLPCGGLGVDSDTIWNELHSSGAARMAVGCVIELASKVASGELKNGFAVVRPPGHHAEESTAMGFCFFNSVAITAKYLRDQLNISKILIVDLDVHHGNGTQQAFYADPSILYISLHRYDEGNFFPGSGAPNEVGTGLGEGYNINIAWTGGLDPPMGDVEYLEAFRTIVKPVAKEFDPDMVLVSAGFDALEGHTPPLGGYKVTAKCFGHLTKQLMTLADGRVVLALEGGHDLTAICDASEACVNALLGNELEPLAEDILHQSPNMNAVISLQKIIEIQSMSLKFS
Chain of Histone deacetylase 4 (P56524 whole entry): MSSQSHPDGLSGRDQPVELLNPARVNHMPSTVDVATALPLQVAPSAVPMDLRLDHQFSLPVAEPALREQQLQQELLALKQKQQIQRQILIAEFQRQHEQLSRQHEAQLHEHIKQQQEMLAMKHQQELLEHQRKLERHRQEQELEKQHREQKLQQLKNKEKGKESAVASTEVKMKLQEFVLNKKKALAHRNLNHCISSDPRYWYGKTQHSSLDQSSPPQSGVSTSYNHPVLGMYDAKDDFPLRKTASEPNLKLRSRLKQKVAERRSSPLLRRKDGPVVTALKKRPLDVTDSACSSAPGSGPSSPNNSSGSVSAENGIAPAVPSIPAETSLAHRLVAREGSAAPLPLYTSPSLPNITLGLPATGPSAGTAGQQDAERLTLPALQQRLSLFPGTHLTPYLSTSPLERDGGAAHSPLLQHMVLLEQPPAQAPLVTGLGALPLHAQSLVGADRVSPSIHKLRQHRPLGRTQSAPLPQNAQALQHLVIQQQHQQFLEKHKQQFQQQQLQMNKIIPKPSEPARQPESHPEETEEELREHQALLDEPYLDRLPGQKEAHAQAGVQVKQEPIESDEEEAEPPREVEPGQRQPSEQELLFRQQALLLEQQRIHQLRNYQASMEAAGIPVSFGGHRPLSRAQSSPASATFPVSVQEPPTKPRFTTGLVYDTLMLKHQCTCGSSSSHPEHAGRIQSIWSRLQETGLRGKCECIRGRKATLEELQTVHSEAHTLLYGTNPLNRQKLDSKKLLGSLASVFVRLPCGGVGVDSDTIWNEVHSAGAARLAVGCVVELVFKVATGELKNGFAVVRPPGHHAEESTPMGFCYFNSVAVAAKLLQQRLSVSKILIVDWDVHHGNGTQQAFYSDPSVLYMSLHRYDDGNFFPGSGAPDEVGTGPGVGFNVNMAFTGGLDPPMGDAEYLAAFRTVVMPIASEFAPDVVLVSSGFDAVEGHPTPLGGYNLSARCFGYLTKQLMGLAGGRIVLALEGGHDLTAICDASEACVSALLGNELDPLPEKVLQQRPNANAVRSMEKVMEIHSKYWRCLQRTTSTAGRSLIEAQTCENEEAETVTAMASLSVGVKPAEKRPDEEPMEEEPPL
Chain of Phosphatidylinositol 4,5-bisphosphate 3-kinase catalytic subunit beta isoform (P42338 whole entry, canonical isoform): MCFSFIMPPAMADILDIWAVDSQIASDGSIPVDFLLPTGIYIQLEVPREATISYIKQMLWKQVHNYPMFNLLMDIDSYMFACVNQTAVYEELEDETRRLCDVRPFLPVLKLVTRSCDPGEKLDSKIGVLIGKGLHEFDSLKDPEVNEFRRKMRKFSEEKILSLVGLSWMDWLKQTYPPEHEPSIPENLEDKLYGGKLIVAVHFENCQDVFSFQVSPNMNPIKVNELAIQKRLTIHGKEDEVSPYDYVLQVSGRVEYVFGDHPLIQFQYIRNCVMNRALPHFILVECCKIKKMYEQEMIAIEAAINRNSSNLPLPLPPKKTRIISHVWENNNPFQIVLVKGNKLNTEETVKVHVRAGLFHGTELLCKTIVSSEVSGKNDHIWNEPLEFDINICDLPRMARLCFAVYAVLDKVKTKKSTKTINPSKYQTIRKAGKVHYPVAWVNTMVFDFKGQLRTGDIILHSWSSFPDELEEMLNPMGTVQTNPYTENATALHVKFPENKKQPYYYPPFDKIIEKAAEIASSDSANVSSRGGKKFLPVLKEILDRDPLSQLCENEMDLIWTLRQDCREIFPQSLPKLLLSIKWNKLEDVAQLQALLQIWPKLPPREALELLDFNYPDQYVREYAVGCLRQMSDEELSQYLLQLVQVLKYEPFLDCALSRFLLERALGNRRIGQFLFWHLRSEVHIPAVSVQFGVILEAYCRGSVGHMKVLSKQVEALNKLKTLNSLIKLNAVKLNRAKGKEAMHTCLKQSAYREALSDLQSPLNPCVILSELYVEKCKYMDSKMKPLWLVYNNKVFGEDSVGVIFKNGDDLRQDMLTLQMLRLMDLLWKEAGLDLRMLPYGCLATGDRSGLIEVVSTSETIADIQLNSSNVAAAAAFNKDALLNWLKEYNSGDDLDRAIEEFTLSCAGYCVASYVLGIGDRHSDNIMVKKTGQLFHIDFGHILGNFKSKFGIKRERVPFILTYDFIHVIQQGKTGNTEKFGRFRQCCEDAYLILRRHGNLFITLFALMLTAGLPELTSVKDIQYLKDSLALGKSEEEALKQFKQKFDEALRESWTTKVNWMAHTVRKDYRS

COc1nc(-c2ccc(NC(=O)Nc3ccc(C(=O)NCCCCCC(=O)Nc4ccccc4N)cc3)cc2)nc(N2CCOCC2)n1
Ratio IC50 (JeKo-1 [1]): 2 | IC50 [2]: > 10000 nM | Activity (JeKo-1 [3]): 17.8% | IC50 [4]: 20.3 nM | IC50 (HL-60): 900 nM | remaining at 0.75 h [5]: 32.8% | remaining at 5 min [6]: 83.8% | IC50 (Histone deacetylase 3): 24.5 nM | IC50 [7]: 206 nM | remaining at 0 min [8]: 100% | IC50 at 48 h [9]: > 100000 nM | inhibition at 10 µM (CYP2C9): 37.4% | remaining at 0.5 h [10]: 45% | IC50 [11]: 29.5 nM | C0 at 24 h [12]: 13700 ng/mL | Activity (JeKo-1 [13]): 70.4% | half-life [14]: 600 min | half-life [15]: 30.9 min | viability at 0.5 µM (JeKo-1 [16]): 48.8% | clearance [17]: 6.02 mL/min/kg | half-life [18]: 26.9 min | inhibition [19]: Active | IC50 (Histone deacetylase 1): 306 nM | remaining at 5 min [20]: 94% | IC50 (Histone deacetylase 9): > 10000 nM | remaining at 0 min [21]: 100% | IC50 (Histone deacetylase 4): > 10000 nM | remaining at 0.5 h [22]: 46.9% | AUC(0-inf) [23]: 2770 ng·h/mL | viability at 1 µM (JeKo-1 [24]): 3.29% | remaining at 0.75 h [25]: 35.8% | Vdss [26]: 0.719 L/kg | IC50 [27]: > 10000 nM
